Data set [1] addresses T1, Human CCR5 receptor (Homo sapiens, UniProt P51681).
T1 construct: expressed in transfected cells
In words: Human CCR5 receptor-ligand binding assay (125I chemokine displacement on CHO-Gα16-hCCR5 cells). The settings on record: RT 2 h. The text has this:
Human CCR5 Receptor-Ligand Binding Assay Protocol
Human CCR5 receptor (Genebank ID: 29169292) was cloned into mammalian expression vector, pTarget (Promega). The construct was transfected into CHO-Gα16 cells by using Fugene Reagent (Roche). Clones were selected under antibiotic pressure (G418 and Hygromycin) and sorted 4 times with a fluorescence activates cell sorter and a monoclonal antibody specific for CCR5 receptor (BD Biosciences Pharmigen, Mab 2D7, Cat. No. 555993). The clone with highest expression (100,000 copies per cell) was chosen for the binding assays.
Adherent cells in […] tissue culture flask (˜90% confluent) were harvested using 1 mM EDTA in PBS (phosphate-buffered saline) without Ca^2+ and Mg^2+. Cells were washed twice with PBS containing no Ca^2+ and Mg^2+. CHO-Gα16-hCCR5 cells were then resuspended (1×10^6/ml) in ice cold binding buffer (50 mM HEPES, 1 mM CaCl2, 5 mM MgCl2, 0.5% BSA, 0.05% NaN3, pH 7.24), pH 7.4), supplemented with freshly made 0.5% BSA and 0.05% NaN3.
Eighty μl CHO-Gα16-hCCR5 (1×10^6/ml) cells were added to 96 well plates. All dilutions were made in binding buffer (50 mM HEPES, 1 mM CaCl2, 5 mM MgCl2, 0.5% BSA, 0.05% NaN3, pH 7.24).
The plates were incubated on a cell shaker at RT for 2 h with a final concentration of 0.1 nM ^125I RANTES or ^125I MIP-1α or ^125I MIP-1β. The compound dilutions were made in PBS, 1% BSA. Total reaction volume was 100 μl per well. The test compounds were added to the cells prior to the addition of radioligand.
After incubation, the cells were harvested onto GF/C filter plates using Packard cell harvester. Filters were pretreated with 0.3% PEI/0.2% BSA for 30 min. The filter plate was washed rapidly 5 times with 25 mM HEPES, 500 mM NaCl, 1 mM CaCl2 and 5 mM MgCl2 adjusted to pH 7.1. Plates were dried in oven (70° C.) for 20 min, added with 40 μl scintillation fluid and sealed with Packard TopSeal-A. Packard Top Count was used to measure of the radioactivity for 1 min per well.
Total binding was determined with control wells added with radioisotope and buffer and the non-specific binding was determined using an excess cold RANTES to some of the control wells. Specific binding was determined by subtracting the non-specific form total binding. Results are expressed as the percentage of specific ^125I RANTES binding. IC50 values were determined using varying concentrations of the test ligand in triplicates and the data was analyzed using GraphPad Prism (GraphPad, San Diego, Calif.).

The mark [2] stands for this setting: 0.1 nM 125I RANTES, read-out: Binding IC50 RANTES.
The mark [3] stands for this setting: 0.1 nM 125I MIP-1β, read-out: Binding IC50 Mip-1b.
Setting [4] is: 0.1 nM 125I MIP-1α, read-out: Binding IC50 Mip-1a.

Like-named read-outs stand apart in the source and are kept apart here.

T1 sequence (P51681 whole entry): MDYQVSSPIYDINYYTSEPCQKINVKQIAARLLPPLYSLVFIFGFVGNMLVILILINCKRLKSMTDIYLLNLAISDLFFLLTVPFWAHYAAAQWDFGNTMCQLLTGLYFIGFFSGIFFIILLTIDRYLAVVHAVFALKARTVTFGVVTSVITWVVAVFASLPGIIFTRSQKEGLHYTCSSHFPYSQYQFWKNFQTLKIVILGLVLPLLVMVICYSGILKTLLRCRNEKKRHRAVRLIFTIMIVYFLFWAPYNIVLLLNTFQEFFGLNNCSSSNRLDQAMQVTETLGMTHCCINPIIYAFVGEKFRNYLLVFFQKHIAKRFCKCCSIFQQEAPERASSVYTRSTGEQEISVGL

`CCCCC1N(CC2CCCCC2)C(=O)OC12CCN(C1(C)CCN(C(=O)c3c(C)ncnc3C)CC1)CC2` (stereo not shown) [Compound I-212, 4-Butyl-3-cyclohexylmethyl-8-[1-(4,6-dimethyl-pyrimidine-5-carbonyl)-4-methyl-piperidin-4-yl]-1-oxa-3,8-diaza-spiro[4.5]decan-2-one; compound with trifluoro-acetic acid]: the IC50 in data set [1] (setting [2]) is 7.3 nM. As for “4-Butyl-8-[1-(2,6-dimethyl-benzoyl)-piperidin-4-yl]-3-(2-methyl-butyl)-1-oxa-3,8-diaza-spiro[4.5]decan-2-one; compound with trifluoro-acetic acid [Compound I-90]”, the IC50 was found to be 1.8 nM in data set [1] (setting [3]) and 5.1 nM in data set [1] (setting [2]).

Take `CCCCC1N(CC2CCCCC2)C(=O)OC12CCN(C1(C)CCN(C(=O)c3c(C)nn(Cc4ccccc4)c3C)CC1)CC2` (stereo not shown) [Compound I-214, 8-[1-(1-Benzyl-3,5-dimethyl-1H-pyrazole-4-carbonyl)-4-methyl-piperidin-4-yl]-4-butyl-3-cyclohexylmethyl-1-oxa-3,8-diaza-spiro[4.5]decan-2-one; compound with trifluoro-acetic acid]: the concentration for half-maximal inhibition (IC50) in data set [1] (setting [2]) was 8.2 nM. Regarding `CCCC[C@@H]1N(CC2CCCCC2)C(=O)OC12CCN(C1CCN(C(=O)c3c(C)cccc3C)CC1)CC2` [Compound I-159, (S)-4-Butyl-3-cyclohexylmethyl-8-[1-(2,6-dimethyl-benzoyl)-piperidin-4-yl]-1-oxa-3,8-diaza-spiro[4.5]decan-2-one], the figures for the IC50 in data set [1] (setting [4]), in data set [1] (setting [3]) and in data set [1] (setting [2]) were 4.5 nM, 10.5 nM and 5.1 nM, respectively. Turning to `CCCCC1CN(CC2CCOCC2)C(=O)OC12CCN(C1(C)CCN(C(=O)c3c(C)ncnc3C)CC1)CC2` (stereo not shown) [Compound I-415, 5-Butyl-9-[1-(4,6-dimethyl-pyrimidine-5-carbonyl)-4-methyl-piperidin-4-yl]-3-(tetrahydro-pyran-4-ylmethyl)-1-oxa-3,9-diaza-spiro[5.5]undecan-2-one; compound with trifluoro-acetic acid], the IC50 is less than 1.5 nM in data set [1] (setting [3]) and 7.7 nM in data set [1] (setting [2]). `CCCCC1N(CC2CCCCC2)C(=O)OC12CCN(C1CCN(C(=O)c3c(C)cccc3C)CC1)CC2` (stereo not shown) [Compound I-1, 4-Butyl-3-cyclohexylmethyl-8-[1-(2,6-dimethyl-benzoyl)-piperidin-4-yl]-1-oxa-3,8-diaza-spiro[4.5]decan-2-one]: the IC50 in data set [1] (setting [4]) was 18 nM; in data set [1] (setting [3]), 13 nM; in data set [1] (setting [2]), 14 nM.

`CCCCN1C(=O)C([C@@H](O)C2CCCCC2)NC(=O)C12CCN(C1CCN(C(=O)c3c(C)cccc3C)CC1)CC2` (stereo partly drawn) [Compound I-76, 1-Butyl-3-((S)-cyclohexyl-hydroxy-methyl)-9-[1-(2,6-dimethyl-benzoyl)-piperidin-4-yl]-1,4,9-triaza-spiro[5.5]undecane-2,5-dione] returned a melting point of 246.9 to 248 °C.

In general, IC50 refers to the concentration that gives 50% inhibition. One may read the melting point as the temperature of the solid-liquid transition.

(Values after patent US7538122B2, “Heterocyclic antiviral compounds” (Roche Palo Alto LLC, priority 2004, dated 2009).)
